In brackets after ≈: the same amount, converted by molar mass. Like-named read-outs stand apart in the source and are kept apart here.
Tests used:
[1] = test system: E. coli CSH(RE45); assay: microbe, parasite or virus in culture; assay type: cell-based; conditions: 10^6 CFU/ml; for MIC: Escherichia coli, 16 h, read-out: Minimum Inhibitory Concentration (MIC), *E. coli CSH(RE45), lactamase-producing strain
How it was run: (§1)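 Each organism, pre-grown overnight in Mueller Hinton broth, is inoculated at 10^6 CFU/ml onto Mueller Hinton agar series with increasing compound concentration; growth inhibition is scored after 16 h, 37° C., giving MIC (μg/ml).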

[2] = test system: E. coli CSH2 (RK1); assay: microbe, parasite or virus in culture; assay type: cell-based; conditions: 10^6 CFU/ml; for MIC: Escherichia coli, 16 h, read-out: Minimum Inhibitory Concentration (MIC), *E. coli CSH2 (RK1), lactamase-producing strain
How it was run: as §1

[3] = test system: E. cloacae 963; assay: in vitro antibacterial activity, agar plate dilution method (MIC); assay type: cell-based; conditions: E. cloacae 963, 10^6 CFU/ml; for MIC: Enterobacter cloacae, 16 h, read-out: Minimum Inhibitory Concentration (MIC)
How it was run: as §1

[4] = test system: E. cloacae Nek 39; assay: as above; assay type: cell-based; conditions: 10^6 CFU/ml; for MIC: Enterobacter cloacae, NEK39, 16 h, read-out: Minimum Inhibitory Concentration (MIC), *E. cloacae Nek 39, lactamase-producing strain
How it was run: as §1

[5] = test system: E. coli GN5482; assay: as above; assay type: cell-based; conditions: for MIC: Escherichia coli, GN5482, 16 h, read-out: Minimum Inhibitory Concentration (MIC)
How it was run: as §1

[6] = test system: E. coli NIHJ JC2; assay: as above; assay type: cell-based; conditions: Escherichia coli, NIHJJC2, 16 h, read-out: Minimum Inhibitory Concentration (MIC), E. coli NIHJ JC2, 10^6 CFU/ml, 37° C.
How it was run: as §1

[7] = test system: K. oxytoca GN10650; assay: as above; assay type: cell-based; conditions: 10^6 CFU/ml; for MIC: Klebsiella oxytoca, GN10650, 16 h, read-out: Minimum Inhibitory Concentration (MIC), *K. oxytoca GN10650, lactamase-producing strain
How it was run: as §1

[8] = test system: K. pneumoniae No. 42; assay: as above; assay type: cell-based; conditions: 10^6 CFU/ml; for MIC: Klebsiella pneumoniae, NO.42, 16 h, read-out: Minimum Inhibitory Concentration (MIC), *K. pneumoniae No. 42, lactamase-producing strain
How it was run: as §1

[9] = test system: K. pneumoniae PCI-602; assay: as above; assay type: cell-based; conditions: Klebsiella pneumoniae, PCI602, 16 h, 10^6 CFU/ml
How it was run: as §1

[10] = test system: M. morganii GN5407; assay: as above; assay type: cell-based; conditions: 10^6 CFU/ml; for MIC: Morganella morganii, GN5407, 16 h, read-out: Minimum Inhibitory Concentration (MIC), *M. morganii GN5407, lactamase-producing strain
How it was run: as §1

[11] = test system: P. vulgaris HX-19; assay: as above; assay type: cell-based; conditions: P. vulgaris HX-19, 10^6 CFU/ml; for MIC: Proteus vulgaris, HX19, 16 h, read-out: Minimum Inhibitory Concentration (MIC)
How it was run: as §1

[12] = test system: P. vulgaris No. 33; assay: as above; assay type: cell-based; conditions: 10^6 CFU/ml; for MIC: Proteus vulgaris, NO.33, 16 h, read-out: Minimum Inhibitory Concentration (MIC), *P. vulgaris No. 33, lactamase-producing strain
How it was run: as §1

[13] = test system: S. aureus 209P NIHJ-JC1; assay: as above; assay type: cell-based; conditions: for MIC: Staphylococcus aureus, 16 h
How it was run: as §1

[14] = test system: S. marcescens IAM 1184; assay: as above; assay type: cell-based; conditions: Serratia marcescens, IAM1184, 16 h, read-out: Minimum Inhibitory Concentration (MIC)
How it was run: as §1

[15] = test system: S. marcescens No. 16-2; assay: as above; assay type: cell-based; conditions: Serratia marcescens, NO.162, 16 h
How it was run: as §1

[16] = test system: Ps. aeruginosa AK 109; assay: as above; assay type: cell-based, Pseudomonas aeruginosa; conditions: for MIC: Pseudomonas aeruginosa, AK109, 16 h, read-out: Minimum Inhibitory Concentration (MIC)
How it was run: as §1

[17] = test system: Ps. aeruginosa AKR17; assay: as above; assay type: cell-based, Pseudomonas aeruginosa; conditions: Ps. aeruginosa AKR17, 10^6 CFU/ml; for MIC: Pseudomonas aeruginosa, 16 h, read-out: Minimum Inhibitory Concentration (MIC)
How it was run: as §1

[18] = test system: Ps. aeruginosa IF03445; assay: as above; assay type: cell-based, Pseudomonas aeruginosa; conditions: 10^6 CFU/ml; for MIC: Pseudomonas aeruginosa, IF03445, 16 h, read-out: Minimum Inhibitory Concentration (MIC), Ps. aeruginosa IF03445
How it was run: as §1

[19] = test system: Ps. cepacia 23; assay: as above; assay type: cell-based, Pseudomonas cepacia; conditions: Ps. cepacia 23, 10^6 CFU/ml; for MIC: Burkholderia cepacia, 16 h, read-out: Minimum Inhibitory Concentration (MIC)
How it was run: as §1

[20] = test system: A. calcoaceticus No. 4; assay: as above; assay type: cell-based, Acinetobacter calcoaceticus; conditions: 10^6 CFU/ml; for MIC: Acinetobacter calcoaceticus, NO.4, 16 h, read-out: Minimum Inhibitory Concentration (MIC), A. calcoaceticus No. 4
How it was run: as §1

[21] = read-out: Minimum Inhibitory Concentration (MIC)
[22] = read-out: Minimum Inhibitory Concentration (MIC), K. pneumoniae PCI-602
[23] = S. marcescens IAM 1184, 10^6 CFU/ml
[24] = read-out: Minimum Inhibitory Concentration (MIC), *S. marcescens No. 16-2, lactamase-producing strain, 10^6 CFU/ml

Compound: CC(=O)Oc1ccc(-c2nc(SCC3=C(C(=O)O)N4C(=O)C(NC(=O)C(=NOC(C(=O)O)c5ccccc5)c5csc(N)n5)C4SC3)sc2CC(=O)O)cc1OC(C)=O (single isomer, unassigned) [Example 61 DB]
- Minimum Inhibitory Concentration (MIC) ([1]; *E. coli CSH(RE45), lactamase-producing strain): 12.5 µg/mL
- Minimum Inhibitory Concentration (MIC) ([2]; *E. coli CSH2 (RK1), lactamase-producing strain): 0.05 µg/mL
- Minimum Inhibitory Concentration (MIC) [3]: 0.78 µg/mL
- Minimum Inhibitory Concentration (MIC) ([4]; *E. cloacae Nek 39, lactamase-producing strain): 0.39 µg/mL
- Minimum Inhibitory Concentration (MIC) ([5]; *E. coli GN5482, lactamase-producing strain, 10^6 CFU/ml): 1.56 µg/mL
- MIC [6]: 3.12 µg/mL (≈ 3.53 µM)
- Minimum Inhibitory Concentration (MIC) ([7]; *K. oxytoca GN10650, lactamase-producing strain): 0.2 µg/mL
- Minimum Inhibitory Concentration (MIC) ([8]; *K. pneumoniae No. 42, lactamase-producing strain): 0.39 µg/mL
- MIC ([9]; K. pneumoniae PCI-602, read-out: Minimum Inhibitory Concentration (MIC)): 0.025 µg/mL (≈ 0.0283 µM)
- Minimum Inhibitory Concentration (MIC) ([10]; *M. morganii GN5407, lactamase-producing strain): 0.39 µg/mL
- Minimum Inhibitory Concentration (MIC) [11]: 0.05 µg/mL
- Minimum Inhibitory Concentration (MIC) ([12]; *P. vulgaris No. 33, lactamase-producing strain): 0.2 µg/mL
- Minimum Inhibitory Concentration (MIC) ([13]; S. aureus 209P NIHJ-JC1, 10^6 CFU/ml, 37° C., 16 hours): 50 µg/mL
- MIC [14]: 0.39 µg/mL (≈ 0.442 µM)
- MIC [15, 21]: 3.12 µg/mL (≈ 3.53 µM)
- Minimum Inhibitory Concentration (MIC) ([16]; Ps. aeruginosa AK 109, 10^6 CFU/ml): 1.56 µg/mL
- Minimum Inhibitory Concentration (MIC) [17]: 0.78 µg/mL
- Minimum Inhibitory Concentration (MIC) ([18]; Ps. aeruginosa IF03445): 3.12 µg/mL
- Minimum Inhibitory Concentration (MIC) [19]: < 0.006 µg/mL
- Minimum Inhibitory Concentration (MIC) ([20]; A. calcoaceticus No. 4): 0.39 µg/mL

Compound: CO/N=C(\C(=O)N[C@@H]1C(=O)N2C(C(=O)O)=C(CSc3nnc(-c4ccc(O)c(O)c4)o3)CS[C@H]12)c1csc(N)n1 [Ex. 1, sodium 7β-[2-(2-aminothiazol-4-yl)-2-methoxyiminoacetamido]-3-[5-(3, 4dihydroxyphenyl)-1,3,4-oxadiazol-2-yl]thiomethyl-3-cephem-4-carboxylate]
- MIC [1]: 0.78 µg/mL
- MIC [2]: < 0.006 µg/mL
- MIC [3]: < 0.006 µg/mL
- MIC [4]: 0.05 µg/mL
- MIC [5]: 0.39 µg/mL
- MIC [6]: 0.05 µg/mL
- MIC [7]: 0.39 µg/mL
- MIC [8]: 0.025 µg/mL
- MIC [9, 22]: < 0.006 µg/mL
- MIC [10]: 0.0125 µg/mL
- MIC [11]: < 0.006 µg/mL
- MIC [12]: 0.0125 µg/mL
- MIC ([13]; read-out: Minimum Inhibitory Concentration (MIC), S. aureus 209P NIHJ-JC1, 10^6 CFU/ml, 37° C., 16 hours): 1.56 µg/mL
- MIC [14, 23]: < 0.006 µg/mL
- MIC [15, 24]: 0.78 µg/mL
- MIC [16]: 0.39 µg/mL
- MIC [17]: > 100 µg/mL
- MIC [18]: 0.78 µg/mL
- MIC [19]: 0.1 µg/mL
- MIC [20]: 0.1 µg/mL

Compound: CO/N=C(\C(=O)N[C@@H]1C(=O)N2C(C(=O)O)=C(CSc3nnc(-c4ccc(OC(C)=O)c(OC(C)=O)c4)o3)CS[C@H]12)c1csc(N)n1 [Ex. 4, sodium 3-[5-(3,4-diacetoxyphenyl)-1,3,4-oxadiazol-2-yl]thiomethyl-7β-[2-(2-thiazol-4-yl)-2-methoxyiminoacetamido]-3-cephem-4carboxylate]
- MIC [1]: 0.78 µg/mL
- MIC [2]: < 0.006 µg/mL
- MIC [3]: < 0.006 µg/mL
- MIC [4]: 0.05 µg/mL
- MIC [5]: 0.39 µg/mL
- MIC [6]: 0.05 µg/mL
- MIC [7]: 0.39 µg/mL
- MIC [8]: 0.025 µg/mL
- MIC [9, 22]: < 0.006 µg/mL
- MIC [10]: 0.0125 µg/mL
- MIC [11]: < 0.006 µg/mL
- MIC [12]: 0.0125 µg/mL
- MIC [13, 21]: 3.12 µg/mL
- MIC [14, 23]: < 0.006 µg/mL
- MIC [15, 24]: 1.56 µg/mL
- MIC [16]: 0.39 µg/mL
- MIC [17]: > 100 µg/mL
- MIC [18]: 0.78 µg/mL
- MIC [19]: 0.1 µg/mL
- MIC [20]: 0.1 µg/mL

Reference: patent US5061794A, “Cephalosporin derivatives, and antibacterial agents” (priority 1986, dated 1991)
